According to patent US20060141546A1, “Bacterial test method by glycated label binding” (priority 2002, published 2006):

Columns and labels:
E. coli = assay: ALP binding to bacteria in presence of carbohydrates, polysaccharides, glycopeptides and lectins (Example 5, Table 3); conditions: ALP 100 mUnits plus 15 μg of additive
Experimental: (§1) Bacterial cells (1 to 4.5×10^7 cells/mL) were washed twice with water after centrifugation to separate cells into a packed pellet from the supernatant liquid. The washed cells in pellet form were suspended in 20 μl of EPPS buffer (50 mM at pH 8.0) and 30 μL of water. Hemoglobin (20 μg) was added as a blocking additive. Alkaline phosphatase (ALP) (100 mUnits) from bovine intestine and 15 μg of simple carbohydrates or proteoglycan or lectins, were added.
(§2) The mixture of glycated protein and bacterial cells was left at 25° C. for 15 minutes. The mixture was then centrifuged at 30,000 rpm for 30 minutes after which the bacterial cells formed a pellet at the bottom of the tube and were washed with water 4-5 times (50 μL). Centrifugation allows separation of glycoprotein bound to the bacteria cells from unbound glycated protein(s).
(§3) After washing, the bacterial pellets were suspended in 50 μL of sodium tetraborate buffer (25 mM at pH 9.5). A 5 uL aliquot of the suspension was assayed for detection of ALP binding by adding 5 μL of para-nitrophenol phosphate (PNPP, 100 mM), 50 μL sodium borate buffer (25 mM at pH 9.0) and 140 μL of water. […] The color is read at 405 nm using a ELISA plate reader between 15-30 min and the absorbance is directly proportional to the amount of ALP bound to the bacteria cell adhesions for glycated groups.

S. faec. = assay: as above; conditions: ALP 100 mUnits plus 15 μg of additive
Experimental: as §1, §2, §3

bacteria [1] = assay: ALP binding to bacteria in presence of carbohydrates, polysaccharides, glycopeptides and lectins (Example 5); conditions: 15 μg additive with ALP
Experimental: as §1, §2, §3

bacteria [2] = assay: Bacteria assay by binding of ALP iso-forms (Example 4, FIG. 10); conditions: for binding of ALP iso-forms to bacteria: 100 mUnits ALP, hemoglobin blocking
Experimental: as §1, with “μL” for “μl”, “intestine, placenta,” for “bovine intestine”, “bacteria sources” for “15 μg of simple carbohydrates or proteoglycan or lectins,”
as §2
as §3, with “in 50 μl of sodium” for “in 50 μL of sodium”, “A 5 μL aliquot of” for “A 5 uL aliquot of”, “nm using an ELISA plate” for “nm using a ELISA plate”, “to the bacteria-cell adhesions for” for “to the bacteria cell adhesions for”, “glycated groups. The results are illustrated in FIG. 10.” for “glycated groups.”

bacteria [3] = assay: Effect of divalent cations on ALP binding to bacteria (Example 7, Table 5, FIG. 12)
Experimental: (§4) Bacterial cells (1 to 4.5×10^7 cells/mL) were washed twice with water after centrifugation to separate cells into a packed pellet from the supernatant liquid. The washed cells in pellet form were suspended in 20 μL of EPPS buffer (50 mM at pH 8.0) and 30 μL of water. […]
as §2
(§5) After washing, the bacterial pellets were suspended in 50 μL of borate buffer (25 mM at pH 9.0). A 5 μL aliquot of the suspension was assayed for detection of ALP binding by adding 5 μL of para-nitrophenol phosphate (PNPP, 100 mM), 50 μL sodium borate buffer (25 mM at pH 9.0) and 140 μL of water. […] The color was read at 405 nm using an ELISA plate reader between 15-30 min; the absorbance is directly proportional to the amount of ALP bound to the bacteria cell.

S. faecalis strain = assay: Zinc concentration dependent ALP binding (Example 7, FIG. 11); conditions: increasing concentration of zinc
Experimental: Bacterial cells (1 to 4.5×10^7 cells/mL) were washed twice with water after centrifugation to separate cells into a packed pellet from the supernatant liquid. The washed cells in pellet form were suspended in 20 μL of EPPS buffer (50 mM at pH 8.0) and 30 μL of water. Bovine intestinal alkaline phosphatase (ALP) (2 μg or […]) was added and 0.2 mM of several cations.
as §2
After washing, the bacterial pellets were suspended in 50 μL of borate buffer (25 mM at pH 9.0). […] The color was read at 405 nm using an ELISA plate reader between 15-30 min; the absorbance is directly proportional to the amount of ALP bound to the bacteria cell.
Concentration dependent binding study has been performed in the presence of increasing concentration of zinc with S. faecalis strain as shown in FIG. 11. […] The studies have been continued with different strains of bacteria in the presence of 1 mM Zn^2+ and the ALP binding could be monitored even at 10^5 bacteria concentration (FIG. 12).

[4] = system: bacteria (Sf—Staph. faec.; Ec: E. coli); assay: Effect of various cations on ALP binding to bacteria (Example 8, FIGS. 13-14); conditions: cations 2 mM, bovine intestinal mucosa ALP, FIG. 13
Experimental: as §4
as §2, with “was” for “were”
as §5

[5] = system: bacteria (both Staph and E. coli); assay: Cation effect on ALP binding, bound ALP assayed in glycine buffer pH 10.0 (Example 9, FIGS. 17-18); conditions: binding at pH 8.0 in EPPS buffer, assay in glycine buffer pH 10.0, FIGS. 17-18
Experimental: The binding was conducted at pH 8.0 in EPPS buffer.

[6] = ALP activity of different sources in glycine buffer (Example 9, FIGS. 15-16); format: biochemical; conditions: assayed in glycine buffer

Molecule	absorbance (405 nm) of ALP bound to bacteria (E. coli)	absorbance (405 nm) of ALP bound to bacteria (S. faec.)	effect on bacteria binding of ALP (in words) (bacteria [1])	binding of ALP iso-forms to bacteria (bacteria [2])	other results
Lipopolysaccharide	1.8	2.0	without any effect	–	–
OC[C@H]1O[C@@H](O)[C@H](O)[C@@H](O)[C@@H]1O [Glucose, β-D-Glucose]	1.8	2.4	did not produce any effect	–	–
bacterial ALP: Alkaline phosphatase from bacteria sources; lacks glycophospholipid	–	–	–	binds bacteria	–
[Cl-].[Cl-].[Zn+2] [ZnCl2]	–	–	–	–	effect of cation on binding of ALP to the bacteria (in words) (bacteria [3]; 0.2 mM): significantly higher binding of ALP; O.D. at 405 nm, With ALP (bacteria [3]; bacteria plus cation (CaCl2 1 mM, MgCl2 1 mM, ZnCl2 0.2 mM) with ALP): 0.53 O.D.; O.D. at 405 nm, No ALP (bacteria [3]; bacteria plus cation (CaCl2 1 mM, MgCl2 1 mM, ZnCl2 0.2 mM), no ALP): 0.23 O.D.; zinc concentration at which optimum binding occurs (S. faecalis strain): 1 mM; effect of various cations on ALP-binding (in words) [4]: stimulate ALP-binding; cation effectiveness for binding of ALP to the bacteria [5]: best metal
Lipoteichoic acid	0.2	0.2	strongly inhibits	–	–
placenta ALP: Alkaline phosphatase from placenta (protein, UniProt P05187 23-506, looked up) Alkaline phosphatase, …: IIPVEEENPDFWNREAAEALGAAKKLQPAQTAAKNLIIFLGDGMGVSTVTAARILKGQKKDKLGPEIPLAMDRFPYVALSKTYNVDKHVPDSGATATAYLCGVKGNFQTIGLSAAARFNQCNTTRGNEVISVMNRAKKAGKSVGVVTTTRVQHASPAGTYAHTVNRNWYSDADVPASARQEGCQDIATQLISNMDIDVILGGGRKYMFRMGTPDPEYPDDYSQGGTRLDGKNLVQEWLAKRQGARYVWNRTELMQASLDPSVTHLMGLFEPGDMKYEIHRDSTLDPSLMEMTEAALRLLSRNPRGFFLFVEGGRIDHGHHESRAYRALTETIMFDDAIERAGQLTSEEDTLSLVTADHSHVFSFGGYPLRGSSIFGLAPGKARDRKAYTVLLYGNGPGYVLKDGARPDVTESESGSPEYRQQSAVPLDEETHAGEDVAVFARGPQAHLVHGVQEQTFIAHVMAFAACLEPYTACDLAPPAGTTD	–	–	–	lowest binding to bacteria	enzyme activity of ALP iso-forms (bacteria [2]; PNPP): lowest enzyme activity; ALP activity compared with other sources [6]: comparable to ALP from other sources
